Earlier results, collected in publication PMC5641599 (Molecular Metabolism, 2017).
Read-outs that look alike come from different tables or passages of the source.

Tested on: MC4R variants
Details: cited from earlier work

NDP-MSH
Binding Bmax (% of WT) (MC4R A303P, ref Hohenadel MG, Int J Obes, 2014): 22.4 % of WT
Binding Bmax (% of WT) (MC4R A303T, ref Tan K, Endocrinology, 2009): 86.6 % of WT
Binding Bmax (% of WT) (MC4R C84R, HEK293 cell line, ref Huang H, Int J Biol Sci, 2014): 5.0 % of WT
Binding Bmax (% of WT) (MC4R C84R, ref Fan ZC, J Cell Mol Med, 2009): 0.0 % of WT
Binding Bmax (% of WT) (MC4R C271Y, HEK293 cell line, ref Huang H, Int J Biol Sci, 2014): 70.0 % of WT
Binding Bmax (% of WT) (MC4R C271Y, ref Tao YX, Endocrinology, 2003): 0.0 % of WT
Binding Bmax (% of WT) (MC4R C271Y, ref Xiang Z, Biochemistry, 2006): 6.7 % of WT
Binding Bmax (% of WT) (MC4R D90N, COS-7 cell line, ref Biebermann H, Diabetes, 2003): 80.0 % of WT
Binding Bmax (% of WT) (MC4R D90N, ref Xiang Z, Biochemistry, 2010): 108.1 % of WT
Binding Bmax (% of WT) (MC4R E61K, ref Tan K, Endocrinology, 2009): 39.6 % of WT
Binding Bmax (% of WT) (MC4R E61K, ref Xiang Z, Biochemistry, 2010): 2.0 % of WT
Binding Bmax (% of WT) (MC4R E308K, ref Xiang Z, Biochemistry, 2010): 37.8 % of WT
Binding Bmax (% of WT) (MC4R F51L, ref Tao YX, J Clin Endocrinol Metab, 2005): 108.0 % of WT
Binding Bmax (% of WT) (MC4R F51L, ref Xiang Z, Biochemistry, 2010): 113.5 % of WT
Binding Bmax (% of WT) (MC4R G55D, ref Tan K, Endocrinology, 2009): 68.6 % of WT
Binding Bmax (% of WT) (MC4R G55V, ref Hohenadel MG, Int J Obes, 2014): 55.4 % of WT
Binding Bmax (% of WT) (MC4R G55V, ref Tan K, Endocrinology, 2009): 128.5 % of WT
Binding Bmax (% of WT) (MC4R G98R, HEK293 cell line, ref Huang H, Int J Biol Sci, 2014): 0.0 % of WT
Binding Bmax (% of WT) (MC4R G98R, ref Xiang Z, Biochemistry, 2010): 0.541 % of WT
Binding Bmax (% of WT) (MC4R I69R, HEK293 cell line, ref Huang H, Int J Biol Sci, 2014): 0.0 % of WT
Binding Bmax (% of WT) (MC4R I69T, ref Tan K, Endocrinology, 2009): 24.8 % of WT
Binding Bmax (% of WT) (MC4R I69T, ref Xiang Z, Biochemistry, 2010): 8.1 % of WT
Binding Bmax (% of WT) (MC4R I102S, ref Roubert P, J Endocrinol, 2010): 23.5 % of WT
Binding Bmax (% of WT) (MC4R I102S, ref Tao YX, J Clin Endocrinol Metab, 2005): 0.0 % of WT
Binding Bmax (% of WT) (MC4R I102S, ref Xiang Z, Biochemistry, 2006): 1.6 % of WT
Binding Bmax (% of WT) (MC4R I102T, ref Larsen LH, J Clin Endocrinol Metab, 2005): 115.0 % of WT
Binding Bmax (% of WT) (MC4R I102T, ref Roubert P, J Endocrinol, 2010): 51.0 % of WT
Binding Bmax (% of WT) (MC4R I102T, ref Tao YX, J Clin Endocrinol Metab, 2005): 20.0 % of WT
Binding Bmax (% of WT) (MC4R I301T, ref Nijenhuis WA, J Biol Chem, 2003): 10.0 % of WT
Binding Bmax (% of WT) (MC4R I301T, ref Vaisse C, J Clin Invest, 2000): 20.0 % of WT
Binding Bmax (% of WT) (MC4R I301T, ref Xiang Z, Biochemistry, 2006): 35.6 % of WT
Binding Bmax (% of WT) (MC4R I316S, ref Xiang Z, Biochemistry, 2006): 55.6 % of WT
Binding Bmax (% of WT) (MC4R I316S, ref Yeo GS, Hum Mol Genet, 2003): 28.0 % of WT
Binding Bmax (% of WT) (MC4R I317T, ref Nijenhuis WA, J Biol Chem, 2003): 42.0 % of WT
Binding Bmax (% of WT) (MC4R I317T, ref VanLeeuwen, J Biol Chem, 2003): 66.7 % of WT
Binding Bmax (% of WT) (MC4R I317T, ref Xiang Z, Biochemistry, 2006): 20.0 % of WT
Binding Bmax (% of WT) (MC4R I317V, ref Fan ZC, J Cell Mol Med, 2009): 94.0 % of WT
Binding Bmax (% of WT) (MC4R I317V, ref Xiang Z, Biochemistry, 2010): 91.9 % of WT
Binding Bmax (% of WT) (MC4R L54P, ref Tan K, Endocrinology, 2009): 32.5 % of WT
Binding Bmax (% of WT) (MC4R L106P, ref Xiang Z, Biochemistry, 2006): 2.2 % of WT
Binding Bmax (% of WT) (MC4R L106P, ref Yeo GS, Hum Mol Genet, 2003): 18.7 % of WT
Binding Bmax (% of WT) (MC4R L304F, ref van der Berg L, Obesity, 2011): 40.0 % of WT
Binding Bmax (% of WT) (MC4R L325F, ref Fan ZC, J Cell Mol Med, 2009): 92.0 % of WT
Binding Bmax (% of WT) (MC4R L325F, ref Larsen LH, J Clin Endocrinol Metab, 2005): 0.0 % of WT
Binding Bmax (% of WT) (MC4R L325F, ref Xiang Z, Biochemistry, 2010): 70.3 % of WT
Binding Bmax (% of WT) (MC4R N62S, HEK293 cell line, ref Huang H, Int J Biol Sci, 2014): 25.0 % of WT
Binding Bmax (% of WT) (MC4R N62S, ref Tao YX, Endocrinology, 2003): 5.0 % of WT
Binding Bmax (% of WT) (MC4R N62S, ref Xiang Z, Biochemistry, 2006): 1.4 % of WT
Binding Bmax (% of WT) (MC4R N62S, ref Yeo GS, Hum Mol Genet, 2003): 20.0 % of WT
Binding Bmax (% of WT) (MC4R N97D, ref Xiang Z, Biochemistry, 2006): 8.9 % of WT
